# Test system: MCF10A cells
# Experiment: Impedimetric collective cell migration assay with proliferation inhibitor
# Assay type: cell-based
# Settings: 1 ng/ml
# Method: In experiments designed to validate the proper functioning of devices, systems and methods for CMAPs of the present disclosure, MCF10A cells, a non-tumorigenic mammary epithelial cell line, were chosen as the cell model to validate whether a Nafion-nanotextured substrate is suitable for cell growth and migration. Cell monolayers were grown to cover a half of the area of each well to achieve a uniform condition at the beginning of the experiment. An elastomeric silicone (polydimethylsiloxane or PDMS) block was attached to the Nafion-patterned surface in each well, and then the MCF10A cells were seeded into the notch of the PDMS block at a seeding density of 20,000 cells per well. After 24 hours of incubation, the cells grew into a cell monolayer in the cell-seeding region and the PDMS block in each well was removed to initiate an impedimetric recording of collective cell migration. Cells migrated collectively as a cell sheet in a migration direction toward the other side of the well along the direction of nanogrooves and reached the end of the nanotextured migration area after 60-hour of migration.
# Additional validation studies were carried out to determine whether collective cell migration behaviors are affected by the nanotextured cell-interface surface, which mimics the topography of in vivo cell migration microenvironment. MCF10A cells were grown on both nanotextured and untextured surfaces and the distances between the cell sheet border at 0 hour and 60 hours were measured.
# Identifying effective drugs that target tumor metastasis is one of the ultimate goals of cancer migration assays. For this reason, a CMAP of the present disclosure was used to assess its capability to detect drug effects by using widely applied inhibitors. In this experiment, 1 ng/ml mitomycin C was used to inhibit MCF10A cell proliferation to determine whether collective cell migration is still faster on Nafion-nanotextured surfaces than on the untextured surfaces, after eliminating proliferation as a confounding factor.
smiles,measurement,setting,value
CO[C@@]12[C@H](COC(N)=O)C3=C(C(=O)C(C)=C(N)C3=O)N1C[C@@H]1N[C@@H]12 [mitomycin C],collective migration,"Nafion-nanotextured (NP) surface, compared with UP untreated, P<0.05","continued to migrate with alacrity, even outpacing their UP untreated counterparts"
same,collective migration after proliferation inhibition,"both nanotextured (NP) and untextured (UP) groups, impedance at 10 kHz",substantially slowed but did not inhibit collective migration
same,collective migration / change in impedance over the duration,untextured (UP) surface,migrated minimally as expected with no significant change in impedance

# — US20210270801A1, “TOPOGRAPHICALLY GUIDED CELL MIGRATION DEVICES AND METHODS” (priority 2018, published 2021)
